# Experimental data reported in paper PMC5055303, “Identification and Tumour-Binding Properties of a Peptide with High Affinity to the Disialoganglioside GD2” (PLoS ONE, 2016).
# What was measured:
# [1] = Phage binding assay on immobilized GD2; set-up: species or system human; conditions: 10 μg GD2 per well, 1 × 10^11 pfu phage, DPBS/Tween20 (0.3%), 1 h room temperature, Fig 1A-C
# Protocol: 96-well microtiter plates (Greiner, Frickenhausen, Germany) were coated with 10 μg GD2 or 10 μg GD1b per well for one hour at room temperature. Wells were then washed 3 times with DPBS/Tween20 (0.05%), blocked with BSA (1%)/DPBS/Tween20 (0.05%) for 1 hour at room temperature, washed again and subsequently filled with H2O. Plates were stored at 8°C until use. For in vitro selection, 2 x 10^11 plaque forming units (pfu) of the unselected M13 Ph.D.-7 phage display peptide library or the phage pool of the subsequent selection rounds was incubated with DPBS/Tween20 (0.1%, 0.2%, 0,3% or 0,4%) in a GD1b coated well for 1 hour at room temperature on a shaker. The phage solution was then transferred to a well containing GD2 and incubated for 1 hour at room temperature. After washing 10 times with DPBS/Tween20 (0.1%, 0.2%, 0,3% or 0,4%), bound phages were eluted by addition of E. coli ER2738 (OD600nm 0.4–0.5) for 30 minutes at 37°C. Phage amplification in 20 ml suspension containing E. coli ER2738 (hereafter referred to as phage pool) and titer determination were performed according to the manufacturer’s instructions with the modification that X-Gal was replaced by S-Gal and ferric ammonium citrate (both obtained from Sigma, Taufkirchen, Germany). For in vivo selection, 2 x 10^11 pfu of the phage pool of the 3rd selection round were injected into the tail vein of a mouse with a xenograft tumour induced by inoculation of IMR32 cells (2 x 10^7). Anaesthetised mice were perfused with DPBS 10 min after phage application. Tumours were explanted, homogenized in LB-medium and the phages were eluted with 900 μl of an E. coli ER2738 suspension at 37°C for 30 minutes in an incubator. Of this suspension, 10 μl were used for the determination of the phage titer. The residual volume was used for phage amplification in 20 ml E. coli ER2738 suspension according to the manufacturer’s instructions. Wells were coated with GD3, GD2, GD1b, GT1b or BSA (10 μg/ well each). For competition experiments, coated wells were pre-incubated with serial dilutions ranging from 10 μg to 100 pg of an 11-mer GD2-specific-peptide in DPBS for one hour at room temperature on a shaker and the supernatant was removed. In total, 1 × 10^11 pfu of the amplified phages were incubated with DPBS/Tween20 (0.3%) for one hour at room temperature on a shaker. After washing with 10 volumes of DPBS/Tween20 (0.3%), bound phages were eluted by adding E. coli ER2738 and phage titer determination was performed as described above. Additionally, an in vivo competition assay was performed in tumour-bearing mice. Therefore, 200 μg of the GD2-specific peptide and 1×10^11 pfu of the phage encoding the same peptide were co-injected intravenously in three IMR32 tumour bearing mice per experiment. Tumours were subsequently harvested and the phage titers were determined as described above.
# [2] = Phage binding assay on immobilized GD1b; set-up: species or system human; conditions: 10 μg GD1b per well, 1 × 10^11 pfu phage, 1 h room temperature, Fig 1A, 1B
# Protocol: 96-well microtiter plates (Greiner, Frickenhausen, Germany) were coated with 10 μg GD2 or 10 μg GD1b per well for one hour at room temperature. Wells were then washed 3 times with DPBS/Tween20 (0.05%), blocked with BSA (1%)/DPBS/Tween20 (0.05%) for 1 hour at room temperature, washed again and subsequently filled with H2O. Plates were stored at 8°C until use. For in vitro selection, 2 x 10^11 plaque forming units (pfu) of the unselected M13 Ph.D.-7 phage display peptide library or the phage pool of the subsequent selection rounds was incubated with DPBS/Tween20 (0.1%, 0.2%, 0,3% or 0,4%) in a GD1b coated well for 1 hour at room temperature on a shaker. The phage solution was then transferred to a well containing GD2 and incubated for 1 hour at room temperature. After washing 10 times with DPBS/Tween20 (0.1%, 0.2%, 0,3% or 0,4%), bound phages were eluted by addition of E. coli ER2738 (OD600nm 0.4–0.5) for 30 minutes at 37°C. […]
# Wells were coated with GD3, GD2, GD1b, GT1b or BSA (10 μg/ well each). […] Tumours were subsequently harvested and the phage titers were determined as described above.
# [3] = Phage binding assay on immobilized GD3; set-up: species or system human; conditions: 10 μg GD3 per well; 1 × 10^11 pfu phage, 1 h room temperature; Fig 1B
# Protocol: (§1) Wells were coated with GD3, GD2, GD1b, GT1b or BSA (10 μg/ well each). For competition experiments, coated wells were pre-incubated with serial dilutions ranging from 10 μg to 100 pg of an 11-mer GD2-specific-peptide in DPBS for one hour at room temperature on a shaker and the supernatant was removed. In total, 1 × 10^11 pfu of the amplified phages were incubated with DPBS/Tween20 (0.3%) for one hour at room temperature on a shaker. After washing with 10 volumes of DPBS/Tween20 (0.3%), bound phages were eluted by adding E. coli ER2738 and phage titer determination was performed as described above. Additionally, an in vivo competition assay was performed in tumour-bearing mice. Therefore, 200 μg of the GD2-specific peptide and 1×10^11 pfu of the phage encoding the same peptide were co-injected intravenously in three IMR32 tumour bearing mice per experiment. Tumours were subsequently harvested and the phage titers were determined as described above.
# [4] = Phage binding assay on immobilized GT1b; set-up: species or system human; conditions: 10 μg GT1b per well; 1 × 10^11 pfu phage, 1 h room temperature; Fig 1B
# Protocol: as §1
# IMR32-induced xenografts [5] = assay: Distribution of 111In- and 68Ga-labelled DOTA peptides in vivo (gamma counter); set-up: species or system NMRI nude mice
# Protocol: ^111In was solved in HCl and a pH 3 was adjusted. DOTA peptides (100 μg) were diluted in the same volume of sodium acetate buffer (pH 5.0). Next, a 1:1 mixture (v/v) of the ^111In /HCl solution and the peptide solution was heated to 80°C for 10 minutes before applying it to a C18 reverse-phase cartridge (Strata™-X 33 μm Polymeric Reversed Phase, Phenomenex, Aschaffenburg, Germany). After washing twice with 5 ml water, elution of the ^111In–labelled peptide was achieved using ethanol abs. and volume was adjusted to 100 μl using isotonic NaCl solution.
# ^111In—labelled DOTA peptides (200–700 kBq) or ^68Ga—labelled DOTA peptides (80–400 kBq) were injected intravenously into mice bearing IMR32-induced (2 x 10^7 cells s.c.) xenografts. Organs and blood of mice were collected between 5 min and 24 h after injection and their radioactive content was quantified using a gamma counter (Automatic Gamma Counter 1480 Wizard TM 3”). The injected dose was calculated by weighing the syringe with and without the tracer. Activity concentrations were corrected for radioactive decay. To evaluate the effects of kidney protection, a mixture containing Gelofusine (80μg/ g bodyweight)/lysine (400μg/ g weight)/arginine (400μg/ g weight) was injected i.v. 5 minutes before application of the tracer. Here, organs and blood were collected 1 h after injection. To compare ^68Ga -labelled peptides with the clinically established tracer, one group of tumour bearing mice received ^124I -MIBG (100–200 kBq) by intravenous injection.
# IMR32-induced xenografts [6] = conditions: 1×10^11 pfu i.v., 10 min circulation; for phage recovery from tumour tissue: perfusion with DPBS, WHWRLPS-phage vs. control phage
# Protocol: Human IMR32 tumour cells were injected subcutaneously (s.c.) in the right and left femoral region of anesthetized NMRI nude mice (1×10^7 IMR32 cells in 50 μl DPBS and 150 μl Matrigel (BD)). For PET imaging, IMR32 cells were injected s.c. in the neck fold. Imaging and all other interventions were conducted on day 14 day after tumour cell inoculation.
# Of the GD2-specific phage or a control phage (GHGRLPS), 1×10^11 pfu were injected intravenously in three IMR32 tumour bearing mice per phage after an i.p. application of the anaesthetics xylazine (16 mg/kg) and ketamine (100 mg/kg). After 10 minutes, the mice were perfused with DPBS and brain, muscle, stomach, kidneys, heart, lung, spleen, liver and tumour were explanted and weighed. Tissues were homogenized in LB-medium using an Ultra-Turrax T25 homogenizer (IKA Labortechnik, Staufen, Germany). Phages were eluted by the addition of E.coli ER2738 bacteria and the phage titers were determined as described above.
# [7] = In vitro competition of WHWRLPS-phage binding to GD2 by soluble peptide; set-up: species or system human; conditions: Fig 2B
# Protocol: as §1
# [8] = test system: IMR32 neuroblastoma cells; assay: Cell proliferation / viability assay (MTT); assay type: cell-based, human; conditions: 1 μg or 10 μg/ml peptide, maximum reduction after 96 h and 10 μg/ml vs. unrelated control peptide, quintuplicate, Fig 2A
# Protocol: Proliferation of the human neuroblastoma cell line IMR32 upon peptide addition was evaluated using MTT assays as described. Peptides were used at a concentration of 1 μg and 10 μg per well in a total volume of 200 μl per well. For each time point and each peptide concentration, experiments and controls were performed in quintuplicate.
# IMR32-induced xenografts [9] = assay: In vivo competition of phage tumour homing by co-injected peptide; set-up: species or system NMRI nude mice; conditions: i.v. coinjection of 200 μg peptide and 1×10^11 pfu WHWRLPS-phage, 10 min; compared to injection of phage only; Fig 2D
# Protocol: as §1
# [10] = one hour after tracer injection, Fig 3C
compound,measurement,setting,value
WHWRLGS,binding of phage to immobilized GD2 (phage output titer),[1],impaired binding
"HAIYPRH [phage 2, reference compound]",binding of phage to immobilized GD2 (phage output titer),[1],did not bind
same,binding of phage to immobilized GD1b,[2],did not bind
same,binding of phage to immobilized GD3,[3],did not bind
same,binding of phage to immobilized GT1b,[4],did not bind
GHGRLGS,binding of phage to immobilized GD2 (phage output titer),[1],impaired binding
"WHWRLPS-DOTA [68Ga-labelled WHWRLPS peptide, WHWRLPS-DOTA peptide labelled with 68Ga]","accumulation in tumour tissue, 124I-MIBG vs. 68Ga-labelled peptide","IMR32-induced xenografts [5]; mouse, in vivo",comparable for both tracers
same,tissue with highest accumulation,"IMR32-induced xenografts [5]; mouse, in vivo",kidney
same,radioactive load in the kidneys with kidney protection,"IMR32-induced xenografts [5]; mouse, in vivo, iv",reduced
same,radioactivity in the blood with kidney protection,"IMR32-induced xenografts [5]; mouse, in vivo, iv",higher accumulation
same,"tumour-specific uptake, 68Ga- vs. 111In-labelled peptide","IMR32-induced xenografts [5]; mouse, in vivo, iv",higher tumour-specific uptake
same,uptake across tissues in comparison to 111In-labelled peptides,"IMR32-induced xenografts [5]; mouse, in vivo, iv",higher uptake across all tissues
WHWRLPS [WHWRLPS-phage],binding of phage to immobilized GD2 (phage output titer),[1],specifically bound
same,binding of phage to immobilized GD2 (phage output titer),[1]; listed as phage 7,high affinity
same,binding of phage to immobilized GD1b,[2]; listed as phage 7,lower affinity
same,phage recovery from tumour tissue,IMR32-induced xenografts [6]; Fig 2C,Significantly higher amounts
same,organs with phage accumulation,IMR32-induced xenografts [6]; attributed to mononuclear phagocytic system,"liver, the spleen and, to a lesser extent, in the lung"
same,phage recovery from other organs,"IMR32-induced xenografts [6]; compared with control phage (GHGRLPS), Fig 2C",lower than that of the control
WHWRLPS [WHWRLPS-peptide],maximum reduction of WHWRLPS-phage binding to GD2,"[7]; in the presence of 10 μg peptide, wells pre-incubated with peptide 1 h",82%
same,peptide concentration sufficient to significantly reduce phage binding to GD2,"[7]; lowest dilution of the series 10 μg to 100 pg, p < 0.05 vs. 0 μg peptide",100 pg/mL
same,effect on IMR32 cell viability,[8],reduce cell viability
same,reduction of WHWRLPS-phage recovery from tumour tissue,IMR32-induced xenografts [9],84%
"N=C(N)NCc1cccc([131I])c1 [124I-MIBG, metaiodobenzylguanidine, reference compound]","accumulation in tumour tissue, 124I-MIBG vs. 68Ga-labelled peptide",IMR32-induced xenografts [5]; [10],comparable for both tracers
same,"activity concentration in blood, 124I-MIBG vs. 68Ga-labelled peptide",IMR32-induced xenografts [5]; [10],higher
same,tissue with highest accumulation,"IMR32-induced xenografts [5]; one hour after tracer injection, thyroid not blocked, Fig 3C",thyroid
GHGRLPS,binding of phage to immobilized GD2 (phage output titer),[1],impaired binding
same,phage recovery from tumour tissue,IMR32-induced xenografts [6]; Fig 2C,did not accumulate in tumour tissue
GHWRLPS,binding of phage to immobilized GD2 (phage output titer),[1],impaired binding
WHGRLPS,binding of phage to immobilized GD2 (phage output titer),[1],impaired binding
